According to PubChem BioAssay AID2060510 (Molecular Pharmacology Branch, DTP, NCI, 2025):

System: 439559-082-T-J2-PDC spheroids viability
Assay: Anticancer human tumor 439559-082-T-J2-PDC patient-derived colon adenocarcinoma cell line growth inhibition [GQUAD]
Conditions: for IC50: curve of first compound; for viability, T/C: stronger effect = lower value
In short: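 Tumor cells were grown as complex spheroids with HUVEC endothelial cells and mesenchymal stem cells as stroma. G-quadruplex stabilizers were combined with targeted agents over half-log dilutions from near the clinical Cmax, or from 10 microM.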

[1] = second compound 0.0316 µM, first compound 0.0316 µM
[2] = second compound 0.0316 µM, first compound 0.1 µM
[3] = second compound 0.0316 µM, first compound 0.316 µM
[4] = second compound 0.0316 µM, first compound 1 µM
[5] = second compound 0.0316 µM, first compound 3.16 µM
[6] = second compound 0.0316 µM, first compound 10 µM
[7] = second compound 0.1 µM, first compound 0.0316 µM
[8] = second compound 0.1 µM, first compound 0.1 µM
[9] = second compound 0.1 µM, first compound 0.316 µM
[10] = second compound 0.1 µM, first compound 1 µM
[11] = second compound 0.1 µM, first compound 3.16 µM
[12] = second compound 0.1 µM, first compound 10 µM
[13] = second compound 0.316 µM, first compound 0.0316 µM
[14] = second compound 0.316 µM, first compound 0.1 µM
[15] = second compound 0.316 µM, first compound 0.316 µM
[16] = second compound 0.316 µM, first compound 1 µM
[17] = second compound 0.316 µM, first compound 3.16 µM
[18] = second compound 0.316 µM, first compound 10 µM
[19] = second compound 1 µM, first compound 0.0316 µM
[20] = second compound 1 µM, first compound 0.1 µM
[21] = second compound 1 µM, first compound 0.316 µM
[22] = second compound 1 µM, first compound 1 µM
[23] = second compound 1 µM, first compound 3.16 µM
[24] = second compound 1 µM, first compound 10 µM
[25] = second compound 3.16 µM, first compound 0.0316 µM
[26] = second compound 3.16 µM, first compound 0.1 µM
[27] = second compound 3.16 µM, first compound 0.316 µM
[28] = second compound 3.16 µM, first compound 1 µM
[29] = second compound 3.16 µM, first compound 3.16 µM
[30] = second compound 3.16 µM, first compound 10 µM
[31] = second compound 10 µM, first compound 0.0316 µM
[32] = second compound 10 µM, first compound 0.1 µM
[33] = second compound 10 µM, first compound 0.316 µM
[34] = second compound 10 µM, first compound 1 µM
[35] = second compound 10 µM, first compound 3.16 µM
[36] = second compound 10 µM, first compound 10 µM
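Further: spheroids exposed to the agents for 7 days before readout.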
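Wherever viability, T/C is given: percent of luminescence signal in DMSO vehicle wells taken as 100% viability.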

SMILES: COc1ccc([C@@H](O)c2cc(-c3ncnc4cc(N5CCOCC5)ccc34)c(F)cc2Cl)nn1 + CN(C)c1ccc(Nc2c3ccc(NC(=O)CCN4CCCC4)cc3nc3cc(NC(=O)CCN4CCCC4)ccc23)cc1
- IC50 (second compound 0.0316 µM): > 10 µM
- IC50 (second compound 0.1 µM): > 10 µM
- IC50 (second compound 0.316 µM): > 10 µM
- IC50 (second compound 1 µM): > 10 µM
- IC50 (second compound 3.16 µM): > 10 µM
- IC50 (second compound 10 µM): > 10 µM
- viability, T/C [1]: 89.5%
- viability, T/C [2]: 98.3%
- viability, T/C [3]: 89.1%
- viability, T/C [4]: 99.7%
- viability, T/C [5]: 79.5%
- viability, T/C [6]: 83.8%
- viability, T/C [7]: 103%
- viability, T/C [8]: 101%
- viability, T/C [9]: 93.8%
- viability, T/C [10]: 96.1%
- viability, T/C [11]: 88.6%
- viability, T/C [12]: 76.5%
- viability, T/C [13]: 95.7%
- viability, T/C [14]: 92.8%
- viability, T/C [15]: 89.6%
- viability, T/C [16]: 79.8%
- viability, T/C [17]: 84%
- viability, T/C [18]: 86.7%
- viability, T/C [19]: 104%
- viability, T/C [20]: 89.1%
- viability, T/C [21]: 95.7%
- viability, T/C [22]: 91.2%
- viability, T/C [23]: 86%
- viability, T/C [24]: 76.4%
- viability, T/C [25]: 94.9%
- viability, T/C [26]: 108%
- viability, T/C [27]: 92.6%
- viability, T/C [28]: 81.1%
- viability, T/C [29]: 76%
- viability, T/C [30]: 79.1%
- viability, T/C [31]: 92.2%
- viability, T/C [32]: 77%
- viability, T/C [33]: 93.7%
- viability, T/C [34]: 71.9%
- viability, T/C [35]: 86.4%
- viability, T/C [36]: 73.4%

SMILES: Cc1cccc(N(C)C(=O)C2C(O)CCN2c2nc(C)cc(C(F)(F)F)c2C#N)c1 (stereo unspecified) + CN(C)c1ccc(Nc2c3ccc(NC(=O)CCN4CCCC4)cc3nc3cc(NC(=O)CCN4CCCC4)ccc23)cc1
- IC50 (second compound 0.0316 µM): > 10 µM
- IC50 (second compound 0.1 µM): > 10 µM
- IC50 (second compound 0.316 µM): > 10 µM
- IC50 (second compound 1 µM): > 10 µM
- IC50 (second compound 3.16 µM): > 10 µM
- IC50 (second compound 10 µM): > 10 µM
- viability, T/C [1]: 102%
- viability, T/C [2]: 87.8%
- viability, T/C [3]: 97.3%
- viability, T/C [4]: 89.8%
- viability, T/C [5]: 94.5%
- viability, T/C [6]: 99.5%
- viability, T/C [7]: 109%
- viability, T/C [8]: 100%
- viability, T/C [9]: 94.6%
- viability, T/C [10]: 92.1%
- viability, T/C [11]: 95.5%
- viability, T/C [12]: 109%
- viability, T/C [13]: 84.5%
- viability, T/C [14]: 98.7%
- viability, T/C [15]: 101%
- viability, T/C [16]: 96.7%
- viability, T/C [17]: 95.2%
- viability, T/C [18]: 94.3%
- viability, T/C [19]: 96.4%
- viability, T/C [20]: 102%
- viability, T/C [21]: 97.5%
- viability, T/C [22]: 99.3%
- viability, T/C [23]: 96.6%
- viability, T/C [24]: 93.9%
- viability, T/C [25]: 112%
- viability, T/C [26]: 93.5%
- viability, T/C [27]: 101%
- viability, T/C [28]: 89.7%
- viability, T/C [29]: 107%
- viability, T/C [30]: 92.1%
- viability, T/C [31]: 93.6%
- viability, T/C [32]: 87.1%
- viability, T/C [33]: 100%
- viability, T/C [34]: 102%
- viability, T/C [35]: 94%
- viability, T/C [36]: 91.8%

SMILES: Cn1ncnc1[C@H]1c2n[nH]c(=O)c3cc(F)cc(c23)N[C@@H]1c1ccc(F)cc1 + CN(C)c1ccc(Nc2c3ccc(NC(=O)CCN4CCCC4)cc3nc3cc(NC(=O)CCN4CCCC4)ccc23)cc1
- IC50 (second compound 0.0316 µM): > 0.316 µM
- IC50 (second compound 0.1 µM): > 0.316 µM
- IC50 (second compound 0.316 µM): > 0.316 µM
- IC50 (second compound 1 µM): > 0.316 µM
- IC50 (second compound 3.16 µM): > 0.316 µM
- IC50 (second compound 10 µM): > 0.316 µM
- viability, T/C (second compound 0.0316 µM, first compound 0.000999 µM): 94.6%
- viability, T/C (second compound 0.0316 µM, first compound 0.00316 µM): 97%
- viability, T/C (second compound 0.0316 µM, first compound 0.00999 µM): 104%
- viability, T/C [1]: 96.3%
- viability, T/C (second compound 0.0316 µM, first compound 0.0999 µM): 95.9%
- viability, T/C [3]: 94.4%
- viability, T/C (second compound 0.1 µM, first compound 0.000999 µM): 99.6%
- viability, T/C (second compound 0.1 µM, first compound 0.00316 µM): 98.6%
- viability, T/C (second compound 0.1 µM, first compound 0.00999 µM): 90.7%
- viability, T/C [7]: 108%
- viability, T/C (second compound 0.1 µM, first compound 0.0999 µM): 94.4%
- viability, T/C [9]: 85.3%
- viability, T/C (second compound 0.316 µM, first compound 0.000999 µM): 99.6%
- viability, T/C (second compound 0.316 µM, first compound 0.00316 µM): 106%
- viability, T/C (second compound 0.316 µM, first compound 0.00999 µM): 97%
- viability, T/C [13]: 94.4%
- viability, T/C (second compound 0.316 µM, first compound 0.0999 µM): 93.8%
- viability, T/C [15]: 82.5%
- viability, T/C (second compound 1 µM, first compound 0.000999 µM): 96.8%
- viability, T/C (second compound 1 µM, first compound 0.00316 µM): 91.7%
- viability, T/C (second compound 1 µM, first compound 0.00999 µM): 96%
- viability, T/C [19]: 111%
- viability, T/C (second compound 1 µM, first compound 0.0999 µM): 96.8%
- viability, T/C [21]: 92.5%
- viability, T/C (second compound 3.16 µM, first compound 0.000999 µM): 101%
- viability, T/C (second compound 3.16 µM, first compound 0.00316 µM): 102%
- viability, T/C (second compound 3.16 µM, first compound 0.00999 µM): 89.6%
- viability, T/C [25]: 99.2%
- viability, T/C (second compound 3.16 µM, first compound 0.0999 µM): 98.1%
- viability, T/C [27]: 85.5%
- viability, T/C (second compound 10 µM, first compound 0.000999 µM): 104%
- viability, T/C (second compound 10 µM, first compound 0.00316 µM): 77.2%
- viability, T/C (second compound 10 µM, first compound 0.00999 µM): 91.5%
- viability, T/C [31]: 85.8%
- viability, T/C (second compound 10 µM, first compound 0.0999 µM): 99.6%
- viability, T/C [33]: 85%
